Measurements from patent publication US12577270B2, “2′,3′-diacetyluridine substituted with acetoacetyl at the 5′ position” (PHARMA CINQ, LLC, priority 2020, dated 2026).
Like-named read-outs stand apart in the source and are kept apart here.

Tests used:
[1] = Plasma uridine and [uridine+uracil] in mice after oral administration of uridine prodrugs (Example 4); format: in vivo, Female CD-1 mice; details: for systemic uridine delivery after oral administration: oral gavage, dose equimolar to 600 mg/Kg UTA, result in words
Excerpt: Chemical(s): HPMC (Hydroxypropyl)methyl cellulose (SIGMA-Aldrich: cat #H3785, CAS 9004-65-3); uridine triacetate (2′,3′,5′-tri-O-acetyluridine): UTA, Item Code D000156, Lot #Q000001095, made by Almac Sciences; 2′,3′,5′-tri-O-(acetoacetyl)uridine: Tri-AcAcU; 5′-O-(acetoacetyl)-2′,3′-di-O-acetyluridine: AcAcDAU; 2′,3′-di-O-acetyl-5′-O-heptanoyluridine: DA-HU. (Note: the AcAcDAU used in this experiment was the mixture of 9.4 parts 5′-O-(acetoacetyl)-2′,3′-di-O-acetyluridine and 1 part a combination of 5′-O-(acetoacetyl)-2′-O-acetyl-3′-O-formyluridine and 5′-O-(acetoacetyl)-3′-O-acetyl-2′-O-formyluridine from Example 1 above.)
(§1) Vehicle: Aqueous HPMC was used as a vehicle for oral administration of the uridine derivatives.
Dosing Formulation: UTA and other uridine derivatives were prepared in 0.75% HPMC. UTA and other uridine derivatives were added to 0.75% HPMC and homogenized to eliminate clumps. The suspension were made up to the desired volume and concentration and sonicated to disaggregate any small leftover clumps into fine particles. Suspensions were stored at 4° C. until use. Suspensions were used within 24 hrs of preparation.
Dosing: Mice received a dose of 600 mg/Kg UTA gavaged at 0.02 ml/g body weight. Other uridine derivatives were dosed in the same manner at concentrations containing amounts of uridine equimolar to UTA.
Animals: Female CD-1 mice.
The general initial layout for the experiment involved gavaging groups of 6 mice with uridine derivatives and obtaining blood samples at several times points thereafter (3 mice were bled for 2 time points (15 and 60 minutes), and another 3 mice were bled for the other 2 time points (30 and 120 minutes). Each experiment included an HPMC (vehicle only) time point with 3 mice to establish a baseline for blood uridine.
Blood samples were collected into plasma separation tubes, which were centrifuged immediately after blood collection, and aliquots of plasma were frozen for subsequent processing. Plasma was later deproteinated, and uridine and uracil were quantified by liquid chromatography using UV absorbance detection and mass spectrometry.
Delivery of uridine into the bloodstream was assessed by monitoring plasma uridine and the sum of uridine and uracil [uridine+uracil], as uracil is the first product in enzymatic degradation of uridine. Mice convert administered uridine to uracil more rapidly and extensively than do humans.

[2] = humans; cited from earlier work
[3] = mice; cited from earlier work
[4] = Plasma uridine, uracil and beta-hydroxybutyrate in mice after oral administration of AcAcDAU (Example 5); format: in vivo, Female CD-1 mice; details: 2350 mg/Kg oral, 15-120 min, result in words
Excerpt: An important feature of 5′-O-(acetoacetyl)-2′,3′-di-O-acetyluridine (AcAcDAU) is that it yields simultaneous or concurrent delivery of both uridine and acetoacetate via a single drug molecule. Acetoacetate in plasma is in equilibrium with beta-hydroxybutyrate (BHB) mirroring free NADH/NAD+ ratios in hepatic mitochondria, and heavily favoring BHB as the more prevalent of the two ketone bodies under normal physiological conditions. Moreover, BHB is stable after blood sampling and processing, whereas acetoacetate is labile. Therefore, plasma BHB was measured along with plasma uridine in mice receiving oral AcAcDAU.
Chemical(s): HPMC (Hydroxypropyl) methyl cellulose (SIGMA-Aldrich: cat #H3785, CAS 9004-65-3), 5′-O-(acetoacetyl)-2′,3′-di-O-acetyluridine (AcAcDAU; lot #432168B). This experiment used the AcAcDAU from Example 2.
as §1
Dosing Formulation: UTA and other uridine derivatives were prepared in 0.75% HPMC. AcAcDAU was added to 0.75% HPMC and homogenized to eliminate clumps. The suspensions were made up to the desired volume and concentration and sonicated to disaggregate any small leftover clumps into fine particles. Suspensions were stored at 4° C. until use. Suspensions were used within 24 hrs of preparation.
Dosing: Mice received a dose of 2350 mg/Kg AcAcDAU gavaged at 0.02 ml/g body weight. Control mice received only the 0.75% HPMC vehicle
General Experimental Design: The general layout for the experiment involved gavaging mice with AcAcDAU and obtaining blood samples at several time points thereafter (see table below for details). The experiment included a group with 2 mice gavaged with HPMC only and bled at 60 and 120 min for determination of baseline plasma uridine.
Mice received 0.02 ml/g bodyweight of a suspension (0.75% hydroxypropylmethylcellulose in water) with a concentration of AcAcDAU of 117 mg/ml for a dose of 2,350 mg/Kg body weight. […]

[5] = tested on: mice receiving 60 mg/kg/day 3-nitropropionic acid (progressive lethal mitochondrial energy failure); experiment: Protection against mortality caused by 3-nitropropionic acid (Example 6, 11 day study); format: in vivo, Female CD-1 mice; details: for Median Survival / % Survival: 3-NP 60 mg/kg/day ip, UTA 1000 mg/kg b.i.d. or AcAcDAU 1113.5 mg/kg b.i.d. oral; for survival time versus vehicle alone: UTA 1000 mg/kg or AcAcDAU 1113.5 mg/kg b.i.d.; for % Survival: end of 11 day study
Description: 5′-O-acetoacetyl-2′,3′-di-O-acetyluridine (AcAcDAU) delivers both uridine and acetoacetate (and beta-hydroxybutyrate [BHB] derived from acetoacetate) into the circulation after oral administration. A study was designed to compare relative efficacy of UTA versus AcAcDAU in a model of progressive lethal mitochondrial energy failure. Mitochondrial dysfunction was produced by daily administration of 3-nitropropionic acid (3-NP; 60 mg/kg/day) by intraperitoneal injection. 3-NP is an irreversible inhibitor of succinate dehydrogenase (Complex II of the mitochondrial electron transport chain). Daily dosing with 3-NP results in progressive diminution of mitochondrial capacity to maintain ATP production, eventually resulting in mortality from both neurodegeneration and cardiomyopathy.
Female CD-1 mice at approximately 16 weeks of age were divided into weight-matched groups of 10 mice each. All mice received daily intraperitoneal injections of 3-NP (60 mg/kg) in a volume of 0.01 ml per gram of body weight.
In addition to daily injections of 3-NP, the three groups of mice received 1) Vehicle; 2) UTA; or 3) AcAcDAU. This experiment used the AcAcDAU from Example 2. These treatments were administered orally, by gavage, in a volume of 0.02 ml per gram of body weight.
• 1. Vehicle Control (0.75% HPMC; hydroxypropylmethylcellulose) • 2. Uridine triacetate 1000 mg/kg BID (suspended in 0.75% HPMC) • 3. AcAcDAU 1113.5 mg/kg (molar equivalent to 1000 mg/kg UTA) BID (dissolved in 0.75% HPMC)
(§2) Body weights were recorded each day to adjust drug doses as mice lost weight during repeated treatment with 3-NP.
Survival times (median survival; the time point at which 50% of animals in a group had died) and percent survival at the end of the 11 day study were used to quantify and compare protective effects of the test agents.

[6] = tested on: mice receiving 60 mg/kg/day 3-nitropropionic acid (progressive mitochondrial failure); experiment: Protection against mortality due to 3-nitropropionic acid, higher doses (Example 7, 10 day study); format: in vivo; details: for survival time versus vehicle alone: UTA 2000 mg/kg or AcAcDAU 2227 mg/kg b.i.d.; for % Survival: end of 10 day study, 3-NP 60 mg/kg/day ip, UTA 2000 mg/kg b.i.d. or AcAcDAU 2227 mg/kg b.i.d. oral
Description: In this example the effect of higher doses of UTA (2000 mg/kg/dose) versus equimolar AcAcDAU (2227 mg/kg/dose) were compared in the same model system.
• 1. Vehicle Control (0.75% HPMC; hydroxypropylmethylcellulose) • 2. Uridine triacetate 2000 mg/kg BID (suspended in 0.75% HPMC)
AcAcDAU 2227 mg/kg (molar equivalent to 2000 mg/kg UTA) BID (dissolved in 0.75% HPMC). This experiment used the AcAcDAU from Example 2. The treatment schedule was as follows:
as §2
Percent survival of mice in each group of 10 mice at the end of the 10 day study were used to quantify and compare protective effects of the test agents.

SMILES	systemic uridine delivery after oral administration [1]	Median Survival [5] [days]	survival time versus vehicle alone ([5]; result in words)	% Survival [5]	survival time versus vehicle alone ([6]; result in words)	% Survival [6]	further results
CC(=O)CC(=O)OC[C@H]1O[C@@H](n2ccc(=O)[nH]c2=O)[C@H](OC(=O)CC(C)=O)[C@@H]1OC(=O)CC(C)=O [Tri-AcAcU, 2′,3′,5′-tri-O-(acetoacetyl)uridine, reference compound]	relatively poor	–	–	–	–	–	–
CCCCCCC(=O)OC[C@H]1O[C@@H](n2ccc(=O)[nH]c2=O)[C@H](OC(C)=O)[C@@H]1OC(C)=O [DA-HU, 2′,3′-di-O-acetyl-5′-O-heptanoyluridine, reference compound]	relatively poor	–	–	–	–	–	–
O=c1ccn([C@@H]2O[C@H](CO)[C@@H](O)[C@H]2O)c(=O)[nH]1 [uridine]	–	–	–	–	–	–	bioavailability (oral delivery) [2]: approximately 7%; bioavailability (oral delivery) [3]: approximately 7%
CC(=O)CC(=O)OC[C@H]1O[C@@H](n2ccc(=O)[nH]c2=O)[C@H](OC(C)=O)[C@@H]1OC(C)=O [AcAcDAU, 5′-O-(acetoacetyl)-2′,3′-di-O-acetyluridine]	–	>11	improved survival time	50% (2/10)	improved survival time	100% (10/10)	delivery of uridine and uridine catabolites ([uridine+uracil]) into the circulation compared with equimolar uridine triacetate ([1]; oral, equimolar to 600 mg/Kg UTA, AcAcDAU was the 9.4:1 mixture from Example 1, result in words): more; Plasma beta-hydroxybutyrate after oral administration [4]: elevated; Plasma uracil after oral administration [4]: elevated; Plasma uridine after oral administration [4]: elevated; median survival time compared with UTA ([5]; AcAcDAU 1113.5 mg/kg b.i.d. vs equimolar UTA, result in words): longer; survival at the 10 day time point compared with equimolar UTA ([6]; AcAcDAU 2227 mg/kg b.i.d. vs UTA 2000 mg/kg b.i.d., result in words): better survival
CC(=O)CC(=O)OC[C@H]1O[C@@H](n2ccc(=O)[nH]c2=O)[C@H](O)[C@@H]1O [AcAcU, 5′-O-(acetoacetyl)uridine]	delivered little uridine	–	–	–	–	–	–
CC(=O)OC[C@H]1O[C@@H](n2ccc(=O)[nH]c2=O)[C@H](OC(C)=O)[C@@H]1OC(C)=O [UTA, 2′,3′,5′-tri-O-acetyluridine, reference compound]	–	7	improved survival time	30% (5/10)	improved survival time	70% (7/10)	–
